Patent US4379156A, “Heterocyclic chemicals, their preparation and use” (Burroughs Wellcome Co., priority 1979, dated 1983)
“And” between values parts separate entries of the source, which are not always exact repeats. Identical values can stand only once. Like-named read-outs stand apart in the source and are kept apart here.

Columns and labels:
[1] = test system: Schistosoma mansoni; assay: Schistosomicidal activity in infected mice (proportion of dead worms); format: in vivo; settings: 12.5 mg/kg, dead worms relative to total worms recovered, autopsy 7 to 10 days after treatment; for % kill P.O.: oral; for % kill S.C.: subcutaneous
Experimental: Male mice weighing between 18 and 20 g were each infected percutaneously with 80 to 100 cercariae of Schistosoma mansoni. Groups of 5 or 10 mice with a 7 to 9 week infection of schistosomes were dosed orally (P.O.) or subcutaneously (S.C.) with 12.5 mg/kg of the compounds to be tested, and the animals were autopsied from 7 to 10 days after treatment. The number, sex and proportional distribution of schistosomes within the mesenteric, portal and intrahepatic veins were determined, and the final assessment of dose response was made on the proportion of dead worms found in relation to the total worms recovered in the treated group.

[2] = Toxicity in adult male mice (LD50); settings: mouse, in vivo, observed up to 10 days
Experimental: Groups of adult male mice were given graded doses of the compound to be tested by stomach tube (P.O.) or subcutaneously (S.C.). The animals were kept under observation at frequent intervals up to 6 hours, then at 24 hours and daily for up to 10 days for overt changes in behaviour and for fatalities.

[3] = Toxicity in adult male mice (LD50); settings: mouse, in vivo, iv, I.V.
[4] = po, by stomach tube, read-out: LD50 P.O.
[5] = sc, subcutaneous, read-out: LD50 S.C.

Compound | % kill P.O. [1] | % kill S.C. [1] | LD50 at 240 h [2, 4] | LD50 at 240 h [2, 5] | LD50 [3]
CC(=O)NC(=O)Cn1cc([N+](=O)[O-])sc1=NC(=O)c1ccccc1C [Example 1, 2-[2-(2-Methylbenzoylimino)-5-nitro-4-thiazolin-3-yl]diacetamide] | 80% | 100% | > 2000 mg/kg | > 2000 mg/kg | 
NC(=O)Cn1cc([N+](=O)[O-])sc1=NC(=O)c1cccc([N+](=O)[O-])c1 [Example 6, 2-[(3-Nitrobenzoyl)imino]-5-nitro-4-thiazoline-3-acetamide] |  |  | > 1000 mg/kg | > 500 mg/kg | 
2-[2-(2-Chlorobenzoylimino)-5-nitro-4-thiazolin-3-yl]diacetamide [Example 3] | 100% and 71% | 99% and 98% |  |  | 
NC(=O)Cn1cc([N+](=O)[O-])sc1=NC(=O)c1ccccc1 [*(2), 2-(benzoylimino)-5-nitro-4-thiazoline-3-acetamide, reference compound] | 8.5% | 0% |  |  | 
CC(=O)NC(=O)Cn1cc([N+](=O)[O-])sc1=NC(=O)c1ccccc1 [*(1), 2-[2-(benzoylimino)-5-nitro-4-thiazolin-3yl]diacetamide, reference compound] | 58% | 53% | 953 mg/kg |  | 192 mg/kg
CC(=O)NC(=O)Cn1cc([N+](=O)[O-])sc1=NC(=O)c1ccccc1[N+](=O)[O-] [Example 4, 2-[2-(2-Nitrobenzoylimino)-5-nitro-4-thiazolin-3-yl]diacetamide] | 74% | 98% |  |  | 
CC(=O)NC(=O)Cn1cc([N+](=O)[O-])sc1=NC(=O)c1cccc([N+](=O)[O-])c1 [Example 2, 2-[2-(3-Nitrobenzoylimino)-5-nitro-4-thiazolin-3-yl]diacetamide] | 100% | 100% | > 2000 mg/kg | > 2000 mg/kg | 
Cc1ccccc1C(=O)N=c1sc([N+](=O)[O-])cn1CC(N)=O [Example 5, 2-[(2-Methylbenzoyl)imino]-5-nitro-4-thiazoline-3-acetamide] |  |  | > 2000 mg/kg | > 1000 mg/kg | 
